Measured values published in patent US12428406B2 (PMV Pharmaceuticals, Inc., priority 2019, dated 2025).

What follows are molecules tested against T1, p53 Y220C (Homo sapiens, UniProt P04637, Y220C) (assay: In vitro DNA binding activity assay (HTRF / TR-FRET): stabilization of p53 Y220C and increase of its DNA binding activity). Conditions: recombinant His-tagged p53 Y220C DNA binding domain (aa 94-312), biotin-labeled consensus DNA, incubated at 27° C. or 29° C. for 60 min.
T1 construct: The recombinant protein was a truncation mutant containing only amino acids 94-312 of p53; made in house; host or cells: E. coli
T1 sequence (P04637 94-312, change not shown): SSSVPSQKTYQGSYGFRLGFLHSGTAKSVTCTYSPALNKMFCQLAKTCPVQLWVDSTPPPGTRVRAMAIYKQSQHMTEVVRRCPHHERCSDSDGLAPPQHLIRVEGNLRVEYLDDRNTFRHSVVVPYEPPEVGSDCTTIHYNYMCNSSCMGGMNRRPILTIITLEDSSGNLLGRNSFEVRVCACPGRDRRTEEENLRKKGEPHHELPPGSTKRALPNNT
Format: biochemical
Description: The ability of a compound of the invention to stabilize p53 Y220C and increase the DNA binding activity of p53 Y220C was measured by a homogeneous time-resolved fluorescence (HTRF) assay. Recombinant His-tagged p53 Y220C used in the HTRF assay was expressed in the bacterium E. coli.
The binding of the recombinant His-tagged p53 Y220C protein and the biotin-labeled consensus DNA was measured using fluorescence resonance energy transfer (FRET). For the FRET assay, the binding between the p53 mutant and the DNA sequence was measured by detecting the fluorescence of the interaction between an anti-His antibody conjugated to allophycocyanin (APC) and streptavidin conjugated to europium to detect the biotin-labeled DNA.
The test compounds were prepared as 4.5 mM stock solutions in dimethyl sulfoxide (DMSO). The compounds of the disclosure were used to test the stabilization of p53 Y220C and increase in DNA binding activity of p53 Y220C. The stock solutions were then serially diluted 3-fold in DMSO, and 1.2 μL of the diluted solutions was added to each well of a 384-well polypropylene black plate.
The test and control samples were spun at 1200 rpm for 1 minute and incubated at room temperature for 15 minutes. […] The plates were spun at 1200 rpm for 1 minute and incubated at room temperature for 20 minutes. The assay signals were monitored by reading excitation at 340 nm, and emission fluorescence at 615 nm and 665 nm on a plate reader.
The percentage of activation of protein DNA binding in the presence of a compound of the invention compared to the absence of the compound was denoted by a SC150 value, which indicated the concentration of the compound required to increase the DNA binding activity by 50%. The SC150 values were calculated using either Prism™ or ActivityBase™.

Compound	SC150 (concentration of the compound required to increase the DNA binding activity by 50%)
COc1cc(S(C)(=O)=O)ccc1NCC#Cc1cc2c(NC3CCN(C(=O)CN(C)C)CC3)cccc2n1CC(F)(F)F [Compound 750A]	+ (+ = 0 μM ≤ SC150 < 0.05 μM)
COc1cc(S(=O)(=O)N(CCO)CCO)ccc1NCC#Cc1cc2c(N[C@H]3CC[C@@H](N(C)C)CC3)cccc2n1CC(F)(F)F [Compound 69A, N,N-bis(2-hydroxyethyl)-3-methoxy-4-{[3-(4-{[(1S,4S)-4-(dimethyl-amino)cyclohexyl]amino}-1-(2,2,2-trifluoroethyl)-1H-indol-2-yl)prop-2-yn-1-yl]amino}benzene-1-sulfonamide]	+ (+ = 0 μM ≤ SC150 < 0.05 μM)
COc1cc(S(=O)(=O)NCC(O)CO)ccc1NCC#Cc1cc2c(NC3CCS(=O)(=O)CC3)cccc2n1CC(F)(F)F (stereo not drawn) [Compound 1042A, N-(2,3-dihydroxypropyl)-4-[(3-{4-[(1,1-dioxo-1λ^6-thian-4-yl)amino]-1-(2,2,2-trifluoroethyl)-1 H-indol-2-yl}prop-2-yn-1-yl)amino]-3-methoxybenzene-1-sulfonamide]	+ (+ = 0 μM ≤ SC150 < 0.05 μM)
COCC(O)CN1CCC(Nc2cccc3c2cc(C#CCNc2ccc(S(=O)(=O)N(C)C)cc2OC)n3CC(F)(F)F)CC1 (stereo not drawn) [Compound 622A]	+ (+ = 0 μM ≤ SC150 < 0.05 μM)
COc1cc(S(N)(=O)=O)ccc1NCC#Cc1cc2c(N[C@H]3CCO[C@@H](C)C3)cccc2n1CC(F)(F)F [Compound 1019A, 3-methoxy-4-{[3-(4-{[(2S,4S)-2-methyloxan-4-yl]amino}-1-(2,2,2-trifluoroethyl)-1H-indol-2-yl)prop-2-yn-1-yl]amino}benzene-1-sulfonamide]	+ (+ = 0 μM ≤ SC150 < 0.05 μM)
COCCN1CC[C@@H](Nc2cccc3c2cc(C#CCNc2ccc(S(C)(=O)=O)cc2OC)n3CC(F)(F)F)[C@@H](F)C1 [Compound 859A, N-[(3S,4R)-3-fluoro-1-(2-methoxyethyl)piperidin-4-yl]-2-{3-[(4-methanesulfonyl-2-methoxyphenyl)amino]prop-1-yn-1-yl}-1-(2,2,2-trifluoroethyl)-1H-indol-4-amine]	+ (+ = 0 μM ≤ SC150 < 0.05 μM)
COCCNC(=O)c1ccc(NCC#Cc2cc3c(NC4CCN(C)CC4)cccc3n2CC(F)(F)F)c(OC)c1 [Compound 497A]	+ (+ = 0 μM ≤ SC150 < 0.05 μM)
COc1cc(S(C)(=O)=O)ccc1NCC#Cc1cc2c(N[C@H]3CN(C)CC[C@H]3O)cccc2n1CC(F)(F)F (racemic) [Compound 766A, rac-(3R,4S)-3-[(2-{3-[(4-methanesulfonyl-2-methoxyphenyl)amino]prop-1-yn-1-yl}-1-(2,2,2-trifluoroethyl)-1H-indol-4-yl)amino]-1-methylpiperidin-4-ol]	+ (+ = 0 μM ≤ SC150 < 0.05 μM)
CNC(=O)c1ccc(NCC#Cc2cc3c(N[C@H]4CC[C@H](N(C)C)CC4)cccc3n2CC(F)(F)F)c(OCC#N)c1 [Compound 113A, 3-(cyanomethoxy)-N-methyl-4-{[3-(4-{[(1R,4R)-4-(dimethyl-amino)cyclohexyl]amino}-1-(2,2,2-trifluoro-ethyl)-1H-indol-2-yl)prop-2-yn-1-yl]amino}benzamide]	+ (+ = 0 μM ≤ SC150 < 0.05 μM)
COc1cc(S(C)(=O)=O)ccc1NCC#Cc1cc2c(N[C@@H]3CCN(C)C[C@@H]3OC)cccc2n1CC(F)(F)F [Compound 532A, 2-{3-[(4-methanesulfonyl-2-methoxyphenyl)amino]prop-1-yn-1-yl}-N-[(3S,4R)-3-methoxy-1-methylpiperidin-4-yl]-1-(2,2,2-trifluoroethyl)-1H-indol-4-amine]	++ (++ = 0.05 μM ≤ SC150 < 0.1 μM)
CCOc1cc(S(C)(=O)=O)ccc1NCC#Cc1cc2c(N[C@H]3CC[C@H](N4CCOCC4)CC3)cccc2n1CC(F)(F)F [Compound 346A, 2-(3-((2-ethoxy-4-(methylsulfonyl)phenyl)amino)prop-1-yn-1-yl)-N-((1R,4R)-4-morpholinocyclohexyl)-1-(2,2,2-trifluoroethyl)-1H-indol-4-amine]	+ (+ = 0 μM ≤ SC150 < 0.05 μM)
CCN1CC[C@@H](Nc2cccc3c2cc(C#CCNc2ccc(C(N)=O)cc2OC)n3CC(F)(F)F)[C@@H](F)C1 [Compound 1063A, 4-{[3-(4-{[(3S,4R)-1-ethyl-3-fluoropiperidin-4-yl]amino}-1-(2,2,2-trifluoroethyl)-1H-indol-2-yl)prop-2-yn-1-yl]amino}-3-methoxybenzamide]	+ (+ = 0 μM ≤ SC150 < 0.05 μM)
COc1cc(C(=O)NC(C)C)ccc1NCC#Cc1cc2c(N[C@H]3CCN(C)C[C@H]3F)cccc2n1CC(F)(F)F (racemic) [Compound 817A, rac-4-{[3-(4-{[(3R,4S)-3-fluoro-1-methylpiperidin-4-yl]amino}-1-(2,2,2-trifluoroethyl)-1H-indol-2-yl)prop-2-yn-1-yl]amino}-3-methoxy-N-(propan-2-yl)benzamide]	+ (+ = 0 μM ≤ SC150 < 0.05 μM)
CCN1CC[C@H](Nc2cccc3c2cc(C#CCNc2ccc(C(=O)O)cc2OC)n3CC(F)(F)F)[C@H](F)C1 [Compound 828A, 4-{[3-(4-{[(3R,4S)-1-ethyl-3-fluoropiperidin-4-yl]amino}-1-(2,2,2-trifluoroethyl)-1H-indol-2-yl)prop-2-yn-1-yl]amino}-3-methoxybenzoic acid]	+ (+ = 0 μM ≤ SC150 < 0.05 μM)
COc1cc(S(=O)(=O)NC(C)=O)ccc1NCC#Cc1cc2c(N[C@H]3CC[C@@H](N(C)C)CC3)cccc2n1CC(F)(F)F [Compound 84A, N-(3-methoxy-4-{[3-(4-{[(1S,4S)-4-(dimethylamino)cyclohexyl]amino}-1-(2,2,2-trifluoroethyl)-1H-indol-2-yl)prop-2-yn-1-yl]amino}benzenesulfonyl)acetamide]	++ (++ = 0.05 μM ≤ SC150 < 0.1 μM)
COCCOc1cc(S(C)(=O)=O)ccc1NCC#Cc1cc2c(N[C@H]3CC[C@H](N(C)C)CC3)cccc2n1CC(F)(F)F [Compound 89A, (1R,4R)-N^4-[2-(3-{[4-methanesulfonyl-2-(2-methoxyethoxy)phenyl]amino}prop-1-yn-1-yl)-1-(2,2,2-trifluoro-ethyl)-1H-indol-4-yl]-N^1,N^1-dimethylcyclo-hexane-1,4-diamine]	+ (+ = 0 μM ≤ SC150 < 0.05 μM)
CNC(=O)c1ccc(NCC#Cc2cc3c(NC4CCN(CC(O)COC)CC4)cccc3n2CC(F)(F)F)c(OCCOC)c1 (stereo not drawn) [Compound 653A, 4-{[3-(4-{[1-(2-hydroxy-3-methoxypropyl)piperidin-4-yl]amino}-1-(2,2,2-trifluoroethyl)-1H-indol-2-yl)prop-2-yn-1-yl]amino}-3-(2-methoxyethoxy)-N-methylbenzamide]	+ (+ = 0 μM ≤ SC150 < 0.05 μM)
COc1cc(S(=O)(=O)Nc2cc(C)on2)ccc1NCC#Cc1cc2c(NC3CCN(C)CC3)cccc2n1CC(F)(F)F [Compound 471A, 3-methoxy-N-(5-methyl-1,2-oxazol-3-yl)-4-[(3-{4-[(1-methylpiperidin-4-yl)amino]-1-(2,2,2-trifluoroethyl)-1H-indol-2-yl}prop-2-yn-1-yl)amino]benzene-1-sulfonamide]	+ (+ = 0 μM ≤ SC150 < 0.05 μM)
COc1cc(C(=O)N(C)C)ncc1NCC#Cc1cc2c(N[C@@H]3CCN(C)C[C@@H]3F)cccc2n1CC(F)(F)F [Compound 1064A, 5-{[3-(4-{[(3S,4R)-3-fluoro-1-methylpiperidin-4-yl]amino}-1-(2,2,2-trifluoroethyl)-1H-indol-2-yl)prop-2-yn-1-yl]amino}-4-methoxy-N,N-dimethylpyridine-2-carboxamide]	+ (+ = 0 μM ≤ SC150 < 0.05 μM)
COc1cc(S(C)(=O)=O)ccc1NCC#Cc1cc2c(NC3CCOCC3)c(OC)ccc2n1CC(F)(F)F [Compound 1012A, 2-{3-[(4-methanesulfonyl-2-methoxyphenyl)amino]prop-1-yn-1-yl}-5-methoxy-N-(oxan-4-yl)-1-(2,2,2-trifluoroethyl)-1H-indol-4-amine]	++++ (++++ = 0.2 μM ≤ SC150 < 1 μM)
CS(=O)(=O)c1ccc(NCC#Cc2cc3c(N[C@H]4CC[C@H](N5CC6(COC6)C5)CC4)cccc3n2CC(F)(F)F)c(OC(F)(F)F)c1 [Compound 285A, 2-(3-{[4-methanesulfonyl-2-(trifluoromethoxy)phenyl]amino}prop-1-yn-1-yl)-N-[(1R,4R)-4-{2-oxa-6-azaspiro[3.3]heptan-6-yl}cyclohexyl]-1-(2,2,2-trifluoroethyl)-1H-indol-4-amine]	+ (+ = 0 μM ≤ SC150 < 0.05 μM)
